Experimental data published in US8778389B2, “Medicament for the treatment of fungal infections particularly aspergillosis” (Sigma-Tau Industrie Farmaceutiche Riunite S.p.A., priority 2004, dated 2014).
Entries after “also recorded” stand apart in the source; their conditions may differ. Read-outs that look alike come from different tables or passages of the source.

Experiments:
[1] = PTX3 levels in bronchoalveolar lavage fluids after i.n. administration; assay type: in vivo, mice; details: 0.5 mg/kg i.n.
Procedure: To assess whether PTX3 may have a beneficial effect in otherwise susceptible mice, we used BM-transplanted mice whose substantial susceptibility to IA is well documented (15). The mice were subjected to treatments with different doses of PTX3 administered intranasally or intraperitoneally, before, concomitantly with or after infection. The doses were selected on the basis of preliminary experiments showing that PTX3 levels (at the dose of 0.5 mg/kg/i.n.) were high in bronchoalveolar lavage fluids for at least 24 h (from 70 to 25 ng/ml from 2 to 24 h) and that they were higher than those observed in mice with IA one day after infection (from 2 to 15 ng/ml) (20 and unpublished data). The survival parameters and fungal load in the lung and brain were then recorded and analysed in comparison with those obtained in mice treated with different doses of AmBisome or Fungizone. […] A dose-dependent effect was detected for this administration period, in that the protective efficacy of PTX3 was lost at the dose of 0.04 mg/kg. […] No difference was observed between the two administration routes. […] These characteristics were not observed in the mice treated with PTX3, the lungs of which were characterised by healing infiltrates of poly- and mononuclear inflammatory cells with no evidence of fungal growth or destruction of the bronchial wall (FIG. 3B).

Aspergillus conidia [2] = assay: Conidia-killing activity of effector phagocytes from treated mice; assay type: in vivo; details: treated vs untreated mice; data not shown
A. fumigatus [3] = assay: In-vitro direct killing activity on the fungus; assay type: cell-based; details: data not shown
[4] = tested on: IL-12 p70, IL-10, TNF-α, IFN-γ, IL-4; assay: Cytokine levels (ELISA) and cytokine-producing CD4+ T spleen cells (ELISPOT) in mice with invasive aspergillosis; assay type: in vivo
Procedure: (§1) BM-transplanted mice, generated as described in detail in the legend to FIG. 1, were infected intranasally with 2×10^7 Aspergillus conidia and treated with 1 mg/kg PTX3 intraperitoneally both before infection (oblique line bars) and from the day of infection and continuing for another 3 days (dotted bars). At 3 days after infection, IL-12 p70 and IL-10 levels were determined by specific ELISA analyses in bronchoalveolar lavage fluids (A), the number of CD4^+ T spleen cells producing cytokines were numbered by ELISPOT analysis (B) and the gene expression of cytokine on CD4^+ spleen cells was determined by real-time PCR. Bars indicate standard errors. *P<0.05, infected vs. non-infected mice; **P<0.05, PTX3-treated vs untreated mice. Non-infected mice (white bars); infected mice (black bars).
BM-transplanted mice, generated as described in detail in the legend to FIG. 1, were infected intranasally with 2×10^7 Aspergillus conidia and treated intraperitoneally with each individual agent alone or in combination after infection. The dosages were as described in detail in the legend to FIG. 6. […] levels (pg/ml) were determined in bronchoaleveolar lavage fluids 3 days after infection (A) and IFN-γ and IL-4 levels (pg/ml) in the culture supernatants of the antigen-activated spleen cells (B) performed at the time of death for those mice that died before, or otherwise at 6 days after infection. Bars indicate standard errors. (−, untreated mice). *P<0.05 treated vs. untreated mice; **P<0.05, combination treatment with PTX3+Fungizone (D-AmB) vs D-AmB alone; ***P<0.05, combination treatment with PTX3+AmBisome (L-AmB) vs each single treatment alone.
The levels of cytokines in the bronchoalveolar lavage fluids and in the supernatants of the cultures of spleen cells stimulated with Aspergillus (9, 10), thermally […], were determined using the ELISA Kit (R&D Systems, Inc. Space Import-Export srl, Milan Italy). The detection limits of the analyses (pg/ml) were <16 for IL-12 p70, <32 for TNF-α, <10 for IFN-γ and <3 for IL-4 and IL-10. For the numbering of the CD4^+ T cells producing cytokines, ELISPOT analysis was used on purified CD4^+ T spleen cells (9, 10). The results were expressed as the mean number of cells producing cytokines (±SE) per 10^5 cells, calculated using replicates of the serial cell dilutions.

A. fumigatus [5] = assay: Lung histology (periodic acid Schiff) in mice with invasive aspergillosis; assay type: in vivo; details: 1 mg/kg i.p. from day of infection and for another 5 days; 6 days after infection
Procedure: Periodic Schiff base sections were prepared from the lungs of the BM-transplanted mice infected with Aspergillus conidia either untreated (A) or treated (B) with 1 mg/kg PTX3 intraperitoneally from the day of infection and continuing for another 5 days. Numerous Aspergillus hyphae (arrows) infiltrate the pulmonary parenchyma, with extensive parenchymal destruction and strong signs of damage to the bronchial wall, and necrosis and poor cell recruitment are observed in the lungs of the untreated mice ([…]). […] Enlargement, ×100 in panels A and B; ×400 in insets.
(§2) The A. fumigatus strain was supplied by a fatal case of pulmonary aspergillosis at the Institute for Infectious Diseases of the University of Perugia (13). […] For reinfection, the mice surviving the primary intranasal (i.n.) infection were inoculated with 5×10^5 of Aspergillus conidia i.v. The fungal load in the lungs, brain and kidneys of the infected mice was quantified by serial plating on Sabouraud dextrose medium and the results (mean±SE) were expressed as colony forming units (CFU) in samples taken from the organs indicated. For selected experiments, the fungal growth was also evaluated by chitin analysis (10). […]

IFN-γ and IL-4 mRNA = assay: Cytokine gene expression on CD4+ spleen cells by real-time RT-PCR; assay type: in vivo, mice; details: prophylactic and therapeutic treatment
Procedure: as §1
Total RNA (5 μg, extracted from CD4^+ T spleen cells using the RNeasy Mini Kit (QIAGEN S.p.A., Milan, Italy)) was retrotranscribed with Sensiscript reverse transcriptase (QIAGEN) according to the manufacturer's indications. The primers for PCR were obtained from Applied Biosystems (Foster City, Calif.). […] The data normalised with RNA 18S were expressed as relative mRNA of the cytokines examined (ΔΔCt) and compared with those of naive mice (10).

Aspergillus conidia [6] = assay: Resistance to Aspergillus reinfection (i.v.) in cured BM-transplanted mice; assay type: in vivo; details: PTX3 concomitantly with primary infection; i.v. reinfection two weeks later; CFU 3 days after reinfection
From the text: FIG. 2 illustrates the effect of the administration of PTX3 on resistance to Aspergillus reinfection. BM-transplanted mice, generated as described in detail in the legend to FIG. 1, were infected intranasally with 2×10^7 Aspergillus conidia one week after the BM transplant and treated concomitantly with PTX3 at the doses and via the administration routes indicated, starting on the day of infection and continuing for the next 5 days. Two weeks after the infection the surviving mice were reinfected intravenously with 5×10^5 Aspergillus conidia. The fungal growth (CFU) in the kidneys was evaluated 3 days after reinfection. * Indicates P<0.05 (treated vs. untreated mice).
as §2

[7] = tested on: CD4+, CD8+, Gr-1+, F4-80+ cells; assay: Cell recovery by FACS analysis of lung and spleen cells and blood leukocyte count in mice with invasive aspergillosis; assay type: in vivo
Procedure: BM-transplanted mice, generated as described in detail in the legend to FIG. 1, were infected intranasally with 2×10^7 Aspergillus conidia and treated (+) or untreated (−) with 1 mg/kg PTX3 intraperitoneally from the day of infection and continuing for another 5 days. The numbers refer to the percentage of positive cells, reported by the FACS analysis in the lungs (A) and in the spleen (B), 3 or 6 days after infection.
The phenotype of the various cell types was assessed using murine antibodies against the antigens indicated with rat anti-mouse antibodies conjugated with FITC from PharMingen (San Diego, Calif.). Prior to immunochemical identification, the FcR was saturated by incubation of the cells with 5% normal serum. Histotype antibodies were used as controls. The analysis was done by means of FACScan (Becton Dickinson, Mountain View, Calif.). The data obtained were evaluated as percentage of positive cells. The histograms are representative of one of four independent experiments.

A. fumigatus [8] = assay type: in vivo, mice
Procedure: Lethally irradiated C3H/HeJ mice were infused with T-cell-depleted BM cells of BALB/c mice (2×10^6) one week before intra-nasal infection with 2×10^7 Aspergillus conidia. The mice were treated with PTX3 or with the polyenes, at the doses and via the routes indicated, 5 days before (Pre-) or after (Post-) or concomitantly with infection (Con.), in each case repeating the administration for the next 5 days. Resistance to the infection was assessed as percentage survival. The fungal load in the lungs, brains and kidneys of the infected mice was quantified by serial plating on the Sabouraud dextrose medium of the lavages of the various organs and the results were expressed as colony forming units (CFU) (mean±SE) in samples taken from the organs indicated and performed at the time of death for the mice that died […] or otherwise at 6 days after infection. The groups consisted of 6 animals.
BM-transplanted mice, generated as described in detail in the legend to FIG. 1, were infected intranasally with 2×10^7 Aspergillus conidia and treated intraperitoneally with each single agent alone or in combination, before (Pre-) or after (Post-) infection. The doses were: 0.04 and 0.2 mg/kg PTX3 before or after infection, respectively; 1 mg/kg AmBisome and 2 mg/kg Fungizone.
Bone marrow (BM) cells from BALB/c donor mice were prepared by differential agglutination with soy agglutinin.
The A. fumigatus strain was supplied by a fatal case of pulmonary aspergillosis at the Institute for Infectious Diseases of the University of Perugia (13). For infection, the mice were lightly anaesthetised by means of the inhalation of ethyl ether prior to the instillation of a suspension of 2×10^7 conidia/20 μL saline solution, which was delivered slowly through the nostrils using a micropipette with a sterile disposable tip. This procedure was repeated for 3 consecutive days. For reinfection, the mice surviving the primary intranasal (i.n.) infection were inoculated with 5×10^5 of Aspergillus conidia i.v. The fungal load in the lungs, brain and kidneys of the infected mice was quantified by serial plating on Sabouraud dextrose medium and the results (mean±SE) were expressed as colony forming units (CFU) in samples taken from the organs indicated. For selected experiments, the fungal growth was also evaluated by chitin analysis (10). For the histological analysis, the lung was removed and immediately fixed in formalin. Sections (3 to 4 μm) of tissues embedded in paraffin were stained with the periodic acid Schiff base procedure (13, 20).
PTX3 (SIGMA-Tau, Pomezia, Rome, Italy) was purified by immunoaffinity chromatography from the culture supernatants of CHO cells CHO transfected with PTX3 and monitored for the absence of endotoxins (20). PTX3, amphotericin B deoxycholate (D-AmB, Fungizone, Bristol-Myers Squibb, Sermoneta, Italy) and liposomal amphotericin B (L-AmB, AmBisome, GILEAD, Milan, Italy) were diluted to the desired concentrations in sterile saline solution (PTX3) or in a 5% glucose-water solution.

[9] = 1 mg/kg i.p., 3 days after infection, vs untreated control

In the case of “PTX3: long pentraxin PTX3 purified by immunoaffinity chromatography from culture supernatants of CHO cells transfected with PTX3”, the “time PTX3 levels were high in bronchoalveolar lavage fluids” value [1] is reported as “at least 24 h”, the “conidia-killing activity of the effector phagocytes” value (Aspergillus conidia [2]) is reported as “higher” and the “direct killing activity on the fungus” value (A. fumigatus [3]) is reported as “ruled out any direct killing activity”. For the same substance, the “increase of IL-12 production” value [4, 9] was “approximately 4 fold”, the “production of IL-10” value [4, 9] was “halved” and the “frequency of CD4+ Th1 cells in the spleen” value ([4]; ELISPOT) was “increased”. For the same substance, the “frequency of cells producing IL-4 in the spleen” value ([4]; ELISPOT) was “reduced”, the “production of IL-4 by spleen cells” value ([4]; antigen-stimulated spleen cell supernatants, suboptimal doses) was “greatly reduced” and the “production of TNF-α” value ([4]; lungs of infected mice treated with PTX3) was “not increased”. For the same substance, the lung pathology (A. fumigatus [5]) was “no evidence of parenchymal destruction or fungal growth; also recorded: improved”, the “expression of IFN-γ mRNA” value (IFN-γ and IL-4 mRNA) was “significantly increased” and the “expression of IL-4 mRNA” value (IFN-γ and IL-4 mRNA) was “reduced”. For the same substance, the “fungal growth in the kidneys of reinfected mice” value (Aspergillus conidia [6]) was “reduced”, the “numbers of CD4+ cells, CD8+ cells and Gr-1+ neutrophils in the lungs” value ([7]; 1 mg/kg i.p., FACS) was “significantly increased” and the “recovery of neutrophils and, partly, of CD4+ T cells in the spleens” value ([7]; 1 mg/kg i.p., FACS) was “observed”. The “absolute number of circulating neutrophils” value ([7]; blood leukocytes, data not shown) was “increased significantly”, the “number of F4-80+ cells of the lungs or spleens” value ([7]; with or without PTX3 treatment) was “No difference” and the survival (A. fumigatus [8]; PTX3 administered after infection) was “increased the survival of the mice only at the higher dose”. For the same substance, the survival (A. fumigatus [8]; PTX3 administered prophylactically, any of the doses assayed) was at least 60 days, the “fungal load in the lung” value (A. fumigatus [8]; after infection, both doses) was “significantly reduced” and the “fungal load in the brain” value (A. fumigatus [8]; after infection, higher dose) was “significantly reduced”. For the same substance, the protective efficacy (A. fumigatus [8]; concomitantly with infection, 0.04 mg/kg) was “lost” and the “fungal load in the lungs and brain” value (A. fumigatus [8]; prophylactic, particularly at highest dose (1 mg/kg), vs untreated) was “significantly reduced”.
